# Test results taken from article PMC11489250, “Optimized methods for measuring competitive binding of chemical substances to thyroid hormone distributor proteins transthyretin and thyroxine binding globulin” (Archives of Toxicology, 2024).
# Where two headings read alike, the source gives them in different places.
# What was measured:
# [1] = target: T1, thyroxine-binding globulin (TBG) (Homo sapiens, UniProt P05543); assay: Competitive TBG-binding assay with FITC-T4 (fluorescence polarization readout); details: for IC20 / Ki / IC50: RT
# T1 construct: purchased Bio-rad Laboratories, Inc. (Veenendaal, The Netherlands)
# T1 sequence (P05543 21-415): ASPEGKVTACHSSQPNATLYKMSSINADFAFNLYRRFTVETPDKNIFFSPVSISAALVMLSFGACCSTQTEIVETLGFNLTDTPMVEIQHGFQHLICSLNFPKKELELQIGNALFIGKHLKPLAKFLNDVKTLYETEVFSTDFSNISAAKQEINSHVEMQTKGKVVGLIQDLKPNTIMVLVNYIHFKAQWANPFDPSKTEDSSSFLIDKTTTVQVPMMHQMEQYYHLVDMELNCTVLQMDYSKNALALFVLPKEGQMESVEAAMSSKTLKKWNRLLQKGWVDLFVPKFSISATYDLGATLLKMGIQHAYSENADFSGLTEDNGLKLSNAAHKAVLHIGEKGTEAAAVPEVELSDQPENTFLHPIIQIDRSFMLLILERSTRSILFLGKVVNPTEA
# Method: Prepared plates were first shaken for 5 min and then incubated for 15 min at room temperature before being analysed by the microplate reader at FP mode (CLARIOstar Plus, BMG LABTECH).
# Accordingly, dilution series of all compounds were prepared in DMSO. First, 24 µL Tris–HCl buffer was pipetted to the wells, followed by 1 µL of the compound stock solution. […] Solvent (DMSO) concentrations in all conditions were 1%. The plates were shaken for 5 min on a plate shaker, followed by an incubation for 15 min at room temperature.
# The adjusted polarization was set to a reference value of 35 mP. The adjustment gain values ranged from 1900 to 2200. The plate layout of TBG-binding assay is provided in Supplementary Information file (Section 4).
# For the competitive TBG-binding experiments, concentration–response curves were fitted:2 r=rmin+rmax-rmin/1+IC50/X^HillSlope with rmin and rmax being the minimum and maximum anisotropy values, respectively. X is the concentration of added competitor. Equations that were used for the calculation of the ICX and Ki values in the TTR-binding assays (Supplementary Information, Section 3) were also used to determine the ICX and Ki values in TBG-binding assays without any changes, respectively. The single Kd, IC20, IC50 and Ki were determined based on replicates (n) in each experiment, and then the average and confidence intervals were determined based on the Kd, IC20, IC50 and Ki values from sperate experiments (N).
# Alternatively, another approach to determine ICX, Kd and Ki values based on a theoretical model of ligand–protein binding biochemistry was taken as described in detail in the Supplementary Information file (Section 5). For this approach, R was used to fit the model to the data. The results obtained from the two approaches were compared in Section 3.4.
# S5.2 Ki and IC50 estimation
# TBG [2] = target: TBG; set-up: method as in Ren et al. [2016]; details: ref Ren et al. [2016], cited from earlier work
# Human TTR [3] = target: T2, Human TTR (Homo sapiens, UniProt P02766); assay: Optimized competitive TTR-binding assay with FITC-T4 (fluorescence intensity readout); details: for IC20: read-out: TTR IC20
# T2 construct: Transthyretin (prealbumin, TTR) >95% from human plasma; purchased Sigma Aldrich (Zwijndrecht, The Netherlands); host or cells: human plasma
# Method: All TTR-binding experiments were performed in black 96-well polystyrene nonbinding plates. Experimental wells and background wells were prepared in triplicate per plate. […] Fluorescence intensity (FI) was measured at λex = 485 ± 20 nm and λem = 528 ± 20 nm (CLARIOstar Plus microplate reader, BMG LABTECH).
# To test the effect of the change in temperature and incubation time, a saturation experiment (N = 3, n = 3) was performed in Tris–HCl buffer (0.1 M Tris (Thermo Scientific, Rockford, USA), 0.1 M NaCl (Merck KGaA, Darmstadt, Germany), 1 mM EDTA (VWR International, B.V. Amsterdam, The Netherlands); pH 8.0). […] Two 96-well plates were prepared at the same time. After shaking for 5 min on a plate shaker, one prepared plate was incubated on ice (at 4 °C) and another plate was incubated at room temperature (22 °C). For both plates the fluorescence was measured at different time points: 5 min, 15 min, 60 min and 120 min.
# First, 48 µL Tris–HCl buffer (pH 8.0) was pipetted to the wells, followed by 2 µL of the compound (in DMSO). […] Final solvent (DMSO) concentrations in all conditions amounted to 1%. All plates were shaken for 5 min on a plate shaker, followed by an incubation for 15 min at room temperature. The standard operation procedure (SOP) is provided in Supplementary Information file (Section 3).
# Calculations of the ICX, Kd and Ki values of TTR-binding assays are described in the Supplementary Information file (Section 3).
# 3.7.5 The competitive TTR binding screening assay
# 3.7.8 Processing data to determine IC50 and calculate Ki value
# [4] = target: T1, thyroxine-binding globulin (TBG); assay: Competitive TBG-binding assay with FITC-T4 (fluorescence polarization readout); details: 37 °C, 15 min, preliminary temperature experiment (N = 2)
# Recombinant TTR = target: Recombinant TTR; set-up: method as in Marchesini et al. [2006]; details: T4 100 nM, recombinant TTR 18.2 nM, 25 °C, 10 min, ref Marchesini et al. [2006], cited from earlier work
# TBG [5] = target: TBG; set-up: method as in Qi et al. [2011]; details: ref Qi et al. [2011]; read-out: TBG literature Ki; cited from earlier work
# TBG [6] = target: TBG; set-up: method as in Ren and Guo [2012]; details: ref Ren and Guo [2012]; read-out: TBG literature Ki; cited from earlier work
# TBG [7] = target: TBG; set-up: method as in Cao et al. [2010]; details: ref Cao et al. [2010]; read-out: TBG literature Ki; cited from earlier work
# TBG [8] = test system: TBG; set-up: method as in Marchesini et al. [2008]; details: T4-coated chips and TBG; ref Marchesini et al. [2008]; read-out: TBG IC50 (SPR biosensor); cited from earlier work
# Human TTR [9] = target: T2, Human TTR; details: FITC-T4 110 nM, human TTR 30 nM, 4 °C, 2 h; ref Hamers et al. [2020]; read-out: TTR literature Ki; cited from earlier work
# TTR = details: ref Ren et al. [2020]; cited from earlier work
# TBG [10] = details: highest tested concentration 100 µM with 100 nM TBG and 50 nM FITC-T4; ref Ren et al. [2020]; cited from earlier work
# [11] = 5 nM FITC-T4, 10 nM TBG, 15 min, descriptive model (Graphpad), average [95% CI], read-out: TBG IC20
# [12] = 5 nM FITC-T4, 10 nM TBG, theoretical model in R, average [95% CI], read-out: TBG IC20, theoretical model
# [13] = 110 nM FITC-T4, 30 nM TTR, RT, 15 min, average [95% CI]
# [14] = 5 nM FITC-T4, 10 nM TBG, 15 min, derived from IC20, descriptive model (Graphpad), average [95% CI], read-out: TBG Ki
# [15] = 5 nM FITC-T4, 10 nM TBG, 15 min, descriptive model (Graphpad), average [95% CI]
# [16] = 5 nM FITC-T4, 10 nM TBG, theoretical model in R, average [95% CI], read-out: TBG Ki values, theoretical model
# [17] = T4EQi = highest human blood concentration x T4-REPi
smiles,measurement,setting,value
"Oc1cc(Cl)ccc1Oc1ccc(Cl)cc1Cl [Triclosan, triclosan]",IC20,[1]; [11],284 nM
same,IC20,[1]; [12],293 nM
"O=C(O)C(F)(F)C(F)(F)C(F)(F)C(F)(F)C(F)(F)C(F)(F)C(F)(F)C(F)(F)C(F)(F)C(F)(F)C(F)(F)C(F)(F)F [PFTA, perfluorotridecanoic acid]",Ki,TBG [2]; read-out: TBG Ki,23000 nM
"N[C@@H](Cc1cc(I)c(Oc2cc(I)c(O)c(I)c2)c(I)c1)C(=O)O [T4, 3,3′,5,5′-tetraiodothyronine]",IC20,Human TTR [3]; [13],25 nM
same,Ki,[1]; [14],2.5 nM
same,IC50,[1]; [15],14.9 nM
same,IC20,[1]; [11],9.2 nM
same,IC20,[1]; [12],5.9 nM
same,Ki,[1]; [16],0.8 nM
same,Ki,"[1]; 15 min, preliminary temperature experiment (N = 2), read-out: TBG Ki",2.9 nM
same,Ki,[4],2.6 nM
same,Kd,Recombinant TTR; read-out: Determined Kd value of ligand with TTR,9.2 ± 1.2 nM
same,Ki,Recombinant TTR; read-out: TTR literature Ki,13.7 ± 1.3 nM
same,Ki,TBG [5],2.2 nM
same,Ki,"TBG [2]; N.D means not detected, read-out: TBG literature Ki",7 nM
same,Ki,TBG [6],17 nM
same,Ki,TBG [7],0.6 nM
same,IC50,TBG [8],17.2 nM
CC(C)(c1cc(Br)c(O)c(Br)c1)c1cc(Br)c(O)c(Br)c1 [TBBPA],IC20,Human TTR [3]; [13],12 nM
same,IC50,"Human TTR [3]; 110 nM FITC-T4, 30 nM TTR, RT, 15 min, average [95% CI], read-out: TTR IC50",22 nM
same,Ki,"Human TTR [3]; 110 nM FITC-T4, 30 nM TTR, RT, 15 min, derived from IC20, average [95% CI], read-out: TTR Ki",12 nM
same,T4EQ concentration (TTR binding),Human TTR [3]; [17],3.73 nM
same,Contribution to T4EQ concentration (TTR binding),Human TTR [3]; mixture of highest human blood concentrations of five model compounds,19.5%
same,Ki,[1]; [14],3760 nM
same,IC50,[1]; [15],68100 nM
same,IC20,[1]; [11],7300 nM
same,IC20,[1]; [12],6420 nM
same,Ki,[1]; [16],3310 nM
same,T4EQ concentration (TBG binding),[1]; [17],2 pM
same,Contribution to T4EQ concentration (TBG binding),"[1]; mixture of highest human blood concentrations of TBBPA, triclosan and BPA",0.1%
same,Ki,Human TTR [9],17 nM
same,binding to TTR (in words),TTR,binding of TBBPA to TTR
same,binding to TBG (in words),TBG [10],not to TBG
